Source: ChEMBL document CHEMBL2146457, “Development of 'DFG-out' inhibitors of gatekeeper mutant kinases” (Bioorg Med Chem Lett, 2012)

assay: Cytotoxicity against mouse BA/F3 cells expressing wild type Bcr-Abl; assay type: functional, cell-based; conditions: BaF3

SMILES | EC50 [nM]
CCN1CCN(Cc2ccc(NC(=O)Nc3cccc(-c4ccc5nc(NC(=O)C6CC6)sc5n4)c3)cc2C(F)(F)F)CC1 | 18
O=C(Nc1cccc(C(F)(F)F)c1)c1cccc(-c2ccc3nc(NC(=O)C4CCNCC4)sc3n2)c1 | > 10000
CCN1CCN(Cc2ccc(NC(=O)c3cccc(-c4ccc5nc(Nc6ccccn6)sc5n4)c3)cc2C(F)(F)F)CC1 | 146
O=C(Nc1cccc(C(F)(F)F)c1)c1cccc(-c2ccc3nc(NC(=O)C4CC4)sc3n2)c1 | 420
CC(=O)Nc1nc2ccc(-c3cccc(C(=O)Nc4cccc(C(F)(F)F)c4)c3)nc2s1 | 5000
Cc1cn(-c2cc(NC(=O)c3ccc(F)c(-c4ccc5nc(NC(=O)C6CC6)sc5n4)c3)cc(C(F)(F)F)c2)cn1 | 20
Cc1cn(-c2cc(NC(=O)c3ccc(C)c(-c4ccc5nc(NC(=O)C6CC6)sc5n4)c3)cc(C(F)(F)F)c2)cn1 | 30
CC(=O)N1CCN(CCC(=O)Nc2nc3ccc(-c4cccc(C(=O)Nc5cccc(C(F)(F)F)c5)c4)nc3s2)CC1 | 5210
CCN1CCN(Cc2ccc(NC(=O)c3ccc(C)c(-c4ccc5nc(NC(=O)C6CC6)sc5n4)c3)cc2C(F)(F)F)CC1 | 1
O=C(Nc1nc2ccc(-c3cccc(C(=O)Nc4cccc(C(F)(F)F)c4)c3)nc2s1)NC1CCNCC1 | 7600
CCN1CCN(Cc2ccc(NC(=O)c3cccc(-c4ccc5nc(NC(C)=O)sc5n4)c3)cc2C(F)(F)F)CC1 | 139

assay: Cytotoxicity against mouse BA/F3 cells expressing imatinib resistant Bcr-Abl […] mutant; assay type: functional, cell-based; conditions: BaF3

SMILES | EC50 [nM]
CCN1CCN(Cc2ccc(NC(=O)Nc3cccc(-c4ccc5nc(NC(=O)C6CC6)sc5n4)c3)cc2C(F)(F)F)CC1 | 13
O=C(Nc1cccc(C(F)(F)F)c1)c1cccc(-c2ccc3nc(NC(=O)C4CCNCC4)sc3n2)c1 | > 10000
CCN1CCN(Cc2ccc(NC(=O)c3cccc(-c4ccc5nc(Nc6ccccn6)sc5n4)c3)cc2C(F)(F)F)CC1 | 276
O=C(Nc1cccc(C(F)(F)F)c1)c1cccc(-c2ccc3nc(NC(=O)C4CC4)sc3n2)c1 | 960
CC(=O)Nc1nc2ccc(-c3cccc(C(=O)Nc4cccc(C(F)(F)F)c4)c3)nc2s1 | 3770
Cc1cn(-c2cc(NC(=O)c3ccc(F)c(-c4ccc5nc(NC(=O)C6CC6)sc5n4)c3)cc(C(F)(F)F)c2)cn1 | 590
Cc1cn(-c2cc(NC(=O)c3ccc(C)c(-c4ccc5nc(NC(=O)C6CC6)sc5n4)c3)cc(C(F)(F)F)c2)cn1 | 560
CC(=O)N1CCN(CCC(=O)Nc2nc3ccc(-c4cccc(C(=O)Nc5cccc(C(F)(F)F)c5)c4)nc3s2)CC1 | > 10000
CCN1CCN(Cc2ccc(NC(=O)c3ccc(C)c(-c4ccc5nc(NC(=O)C6CC6)sc5n4)c3)cc2C(F)(F)F)CC1 | 60
O=C(Nc1nc2ccc(-c3cccc(C(=O)Nc4cccc(C(F)(F)F)c4)c3)nc2s1)NC1CCNCC1 | 7180
CCN1CCN(Cc2ccc(NC(=O)c3cccc(-c4ccc5nc(NC(C)=O)sc5n4)c3)cc2C(F)(F)F)CC1 | 193

assay: Cytotoxicity against wild type mouse BA/F3 cells; assay type: cell-based; conditions: BaF3

SMILES | EC50 [nM]
CCN1CCN(Cc2ccc(NC(=O)Nc3cccc(-c4ccc5nc(NC(=O)C6CC6)sc5n4)c3)cc2C(F)(F)F)CC1 | 690
O=C(Nc1cccc(C(F)(F)F)c1)c1cccc(-c2ccc3nc(NC(=O)C4CCNCC4)sc3n2)c1 | > 10000
CCN1CCN(Cc2ccc(NC(=O)c3cccc(-c4ccc5nc(Nc6ccccn6)sc5n4)c3)cc2C(F)(F)F)CC1 | 3530
O=C(Nc1cccc(C(F)(F)F)c1)c1cccc(-c2ccc3nc(NC(=O)C4CC4)sc3n2)c1 | 910
CC(=O)Nc1nc2ccc(-c3cccc(C(=O)Nc4cccc(C(F)(F)F)c4)c3)nc2s1 | > 10000
Cc1cn(-c2cc(NC(=O)c3ccc(F)c(-c4ccc5nc(NC(=O)C6CC6)sc5n4)c3)cc(C(F)(F)F)c2)cn1 | > 10000
Cc1cn(-c2cc(NC(=O)c3ccc(C)c(-c4ccc5nc(NC(=O)C6CC6)sc5n4)c3)cc(C(F)(F)F)c2)cn1 | 4670
CC(=O)N1CCN(CCC(=O)Nc2nc3ccc(-c4cccc(C(=O)Nc5cccc(C(F)(F)F)c5)c4)nc3s2)CC1 | > 10000
CCN1CCN(Cc2ccc(NC(=O)c3ccc(C)c(-c4ccc5nc(NC(=O)C6CC6)sc5n4)c3)cc2C(F)(F)F)CC1 | 1230
O=C(Nc1nc2ccc(-c3cccc(C(=O)Nc4cccc(C(F)(F)F)c4)c3)nc2s1)NC1CCNCC1 | > 10000
CCN1CCN(Cc2ccc(NC(=O)c3cccc(-c4ccc5nc(NC(C)=O)sc5n4)c3)cc2C(F)(F)F)CC1 | 4160
